Laboratory results from patent US20190077795A1, “ARGININE […] INHIBITORS AND USES THEREOF” (Epizyme, Inc., priority 2014, published 2019).
Read-outs that look alike come from different tables or passages of the source.

Experiments:
human PRMT1 = target: T1, human PRMT1 (Homo sapiens, UniProt Q99873); experiment: PRMT1 Biochemical Assay; conditions: peptide substrate, 3H-SAM Flashplate assay; read-out: PRMT1 IC50
T1 construct: GST-tagged PRMT1; made in house; host or cells: High Five insect cells (baculovirus, pFastBac1)
Summary of the method: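 GST-tagged PRMT1 from baculovirus-infected cells, preincubated with compounds 30 min at room temperature in 20 mM Bicine pH 7.6, 1 mM TCEP, 0.005% BSG, 0.002% Tween 20. Reaction started with ³H-SAM plus biotinylated peptide, stopped with 300 µM cold SAM.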

human PRMT8 = human PRMT8 (Homo sapiens, UniProt Q9NR22); experiment: PRMT8 Biochemical Assay; conditions: PRMT8 IC50 (uM), peptide substrate, 3H-SAM Flashplate assay
Text: S-adenosylmethionine (SAM), S-adenosylhomocysteine (SAH), bicine, Tween20, dimethylsulfoxide (DMSO), bovine skin gelatin (BSG), isopropyl-3-D-thiogalactopyranoside (IPTG), and Tris(2-carboxyethyl)phosphine hydrochloride solution (TCEP) were purchased from Sigma-Aldrich at the highest level of purity possible. ^3H-SAM was purchase from American Radiolabeled Chemicals with a specific activity of 80 Ci/mmol. 384-well streptavidin Flashplates were purchased from PerkinElmer.
E. coli (BL21(DE3) Gold, Stratagene) made competent by the CaCl2 method were transformed with the PRMT8 construct and ampicillin selection. Protein over-expression was accomplished by growing the PRMT8 expressing E. coli clone and inducing expression with 0.3 mM IPTG at 16° C. The culture was grown for 12 hours, harvested by centrifugation, and stored at −80° C. for purification.
GST-tagged PRMT8 was eluted with 50 mM Tris, 2 mM glutathione, pH 7.8. Pooled fractions were cleaved by thrombin (10U) and dialysed in buffer A. GST was removed by reloading the cleaved protein sample onto glutathione sepharose column and PRMT8 was collected in the flow-through fractions. PRMT8 was purified further by ceramic hydroxyapatite chromatography. The column was washed with 50 mM phosphate buffer, 100 mM NaCl, 5% glycerol, 5 mM β-mercaptoethanol, pH 7.8 and PRMT8 was eluted by 100 mM phosphate in the same buffer. Protein was concentrated and buffer was exchanged to 50 mM Tris, 300 mM NaCl, 10% glycerol, 5 mM β-mercaptoethanol, pH 7.8 by ultrafiltration.
General Procedure for PRMT8 Enzyme Assays on Peptide Substrates.
The assays were all performed in a buffer consisting of 20 mM Bicine (pH=7.6), 1 mM TCEP, 0.005% BSG, and 0.002% Tween 20, prepared on the day of use. […] DMSO (1 ul) was added to Columns 11, 12, 23, 24, rows A-H for the maximum signal control and 1 ul of SAH, a known product and inhibitor of PRMT8, was added to columns 11, 12, 23, 24, rows I-P for the minimum signal control. A cocktail (40 ul) containing the PRMT8 enzyme was added by Multidrop Combi (Thermo-Fisher). The compounds were allowed to incubate with PRMT8 for 30 min at room temperature, then a cocktail (10 ul) containing ^3H-SAM and peptide was added to initiate the reaction (final volume=51 ul). […] The assays were stopped by the addition of non-radiolabeled SAM (10 ul) to a final concentration of 400 uM, which dilutes the ^3H-SAM to a level where its incorporation into the peptide substrate is no longer detectable. 50 ul of the reaction in the 384-well polypropylene plate was then transferred to a 384-well Flashplate and the biotinylated peptides were allowed to bind to the streptavidin surface for at least 1 hour before being washed once with 0.1% Tween20 in a Biotek ELx405 plate washer. The plates were then read in a PerkinElmer TopCount plate reader to measure the quantity of ^3H-labeled peptide bound to the Flashplate surface, measured as disintegrations per minute (dpm) or alternatively, referred to as counts per minute (cpm).
Where dpm=disintegrations per minute, cmpd=signal in assay well, and min and max are the respective minimum and maximum signal controls.
Where top and bottom are the normally allowed to float, but may be fixed at 100 or 0 respectively in a 3-parameter fit. The Hill Coefficient normally allowed to float but may also be fixed at 1 in a 3-parameter fit. Y is the % inhibition and X is the compound concentration.

[1] = test system: mono-methyl arginine in RKO cells; experiment: RKO Methylation Assay, In Cell Western (ICW); format: cell-based; conditions: 72 hours
human PRMT6 = target: T2, human PRMT6 (Homo sapiens, UniProt Q96LA8); experiment: PRMT6 Biochemical Assay
T2 construct: Flag-PRMT6-His; made in house; host or cells: HEK 293F cells (BacMam baculovirus, pFastBacMam)

[2] = peptide substrate, 3H-SAM Flashplate assay, read-out: PRMT6 IC50

human PRMT8, sequence (Q9NR22 whole entry): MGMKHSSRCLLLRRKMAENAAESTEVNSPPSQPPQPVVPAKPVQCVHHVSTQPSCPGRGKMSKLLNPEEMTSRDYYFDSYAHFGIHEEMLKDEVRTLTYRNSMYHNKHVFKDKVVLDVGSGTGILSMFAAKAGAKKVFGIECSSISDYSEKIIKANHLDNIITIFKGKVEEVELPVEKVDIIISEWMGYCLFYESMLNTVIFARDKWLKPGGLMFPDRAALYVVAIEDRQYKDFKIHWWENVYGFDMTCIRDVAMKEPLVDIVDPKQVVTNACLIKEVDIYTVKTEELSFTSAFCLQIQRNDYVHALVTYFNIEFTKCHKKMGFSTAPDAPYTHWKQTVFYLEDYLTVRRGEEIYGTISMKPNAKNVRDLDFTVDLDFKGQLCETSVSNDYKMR
T1 sequence (Q99873 with tags, fused parts or gaps): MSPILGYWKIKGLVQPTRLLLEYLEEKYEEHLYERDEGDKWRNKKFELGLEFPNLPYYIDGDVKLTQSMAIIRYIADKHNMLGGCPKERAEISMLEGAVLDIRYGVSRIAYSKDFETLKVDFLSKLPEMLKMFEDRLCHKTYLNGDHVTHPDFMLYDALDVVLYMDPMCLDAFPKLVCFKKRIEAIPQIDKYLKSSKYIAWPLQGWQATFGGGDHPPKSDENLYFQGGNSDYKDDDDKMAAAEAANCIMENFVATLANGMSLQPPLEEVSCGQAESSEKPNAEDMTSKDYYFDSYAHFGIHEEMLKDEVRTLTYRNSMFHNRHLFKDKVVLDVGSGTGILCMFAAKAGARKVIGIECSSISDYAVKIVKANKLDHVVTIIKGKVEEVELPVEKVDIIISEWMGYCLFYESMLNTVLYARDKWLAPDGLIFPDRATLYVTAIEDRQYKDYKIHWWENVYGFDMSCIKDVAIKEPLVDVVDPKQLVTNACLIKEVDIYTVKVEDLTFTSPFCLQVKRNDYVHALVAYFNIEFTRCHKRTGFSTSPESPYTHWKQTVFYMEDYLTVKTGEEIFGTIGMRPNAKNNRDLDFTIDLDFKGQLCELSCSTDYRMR
T2 sequence (Q96LA8 with tags, fused parts or gaps): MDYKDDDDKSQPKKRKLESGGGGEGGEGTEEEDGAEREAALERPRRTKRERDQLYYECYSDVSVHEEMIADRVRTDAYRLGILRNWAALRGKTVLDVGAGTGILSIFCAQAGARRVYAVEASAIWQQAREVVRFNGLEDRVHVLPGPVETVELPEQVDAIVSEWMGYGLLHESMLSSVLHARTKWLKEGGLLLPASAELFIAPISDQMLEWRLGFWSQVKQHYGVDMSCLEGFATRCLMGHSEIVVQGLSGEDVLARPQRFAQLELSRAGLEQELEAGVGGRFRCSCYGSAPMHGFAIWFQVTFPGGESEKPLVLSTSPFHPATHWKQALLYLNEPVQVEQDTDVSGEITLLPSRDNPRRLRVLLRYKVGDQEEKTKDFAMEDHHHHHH

IC50 (human PRMT1) [µM]	IC50 (human PRMT8) [µM]	IC50 (human PRMT6; [2]) [µM]	Structure (SMILES)	ICW EC30 [1] [µM]	IC50 (human PRMT6; PRMT6 IC50 (uM)) [µM]
0.0415	0.123	0.0329	CNCCN(C)Cc1c[nH]nc1-c1ccc(OC2CCOCC2)nc1 [Compound 119]	1.292	–
0.043	0.371	> 10	CCOCC(C)(C)c1cc(OCCOC)cc(-c2n[nH]cc2CN(C)CCNC)c1 [Compound 122]	6.626	–
0.0439	0.376	1.47	CNCCN(C)Cc1c[nH]nc1-c1cc(OC2CCOCC2)cc(C(F)(F)F)c1 [Compound 123]	18.364	–
0.0443	0.413	0.107	CN(CCN)Cc1c[nH]nc1-c1ccc(N2CCOCC2)cc1 [Compound 124]	3.978	–
0.0455	0.269	0.0548	CNCCN(C)Cc1c[nH]nc1-c1ccc(OCCC(O)CO)cc1 (stereo not drawn) [Compound 125]	10.45	–
0.0455	0.0446	0.0737	CNCCN(C)Cc1cnn(C)c1-c1cccc(OC2CC2)c1 [Compound 126]	1.272	–
0.0459	0.467	3.45	CCN(c1ccc(-c2n[nH]cc2CN(C)CCNC)cn1)C1CCOCC1 [Compound 127]	9.19	–
0.0464	0.131	0.0343	CNCCN(C)Cc1c[nH]nc1-c1ccc(OCCCS(C)(=O)=O)cc1 [Compound 128]	13.334	–
0.0475	0.0877	0.219	CNCCN(C)Cc1cnn(C)c1-c1cccc(CC(C)C)c1 [Compound 129]	7.415	–
0.0489	0.3	0.619	CNCCN(C)Cc1c[nH]nc1-c1cc(OCCCO)cc(C(F)(F)F)c1 [Compound 130]	11.844	–
0.0494	0.15	> 10	CCOCC(C)c1cc(OCCOC)cc(-c2n[nH]cc2CN(C)CCNC)c1 (stereo not drawn) [Compound 132]	3.608	–
0.121	0.168	2.07	CNCCN(C)Cc1n[nH]cc1-c1cc(C(=O)C(C)C)cc(C(F)(F)F)c1 [Compound 134]	>6.7	–
0.00585	0.0336	0.00405	CNCCN(C)Cc1c[nH]nc1-c1ccc(OCCOc2ccc(OC)cc2)cc1 [Compound 135]	0.086	–
0.00521	0.0124	0.00825	CNCCN(C)Cc1c[nH]nc1-c1ccc(N(C)CCCOc2ccc(OC)cc2)cc1 [Compound 136]	0.1762	–
0.00608	0.0366	0.00977	CNCCN(C)Cc1c[nH]nc1-c1ccc(OCCOc2ccc(C(F)(F)F)cc2)cc1 [Compound 138]	0.3278	–
0.00683	0.0526	0.00703	CNCCN(C)Cc1c[nH]nc1-c1ccc(OCCOc2ccc(OC(F)(F)F)cc2)cc1 [Compound 140]	0.47	–
0.0658	0.056	0.0869	CNCCN(C)Cc1cnn(C2CCC2)c1-c1ccc(OC(C)C)cc1 [Compound 141]	0.496	–
0.00669	0.0258	0.00448	CNCCN(C)Cc1c[nH]nc1-c1ccc(OCCOc2cccc(CO)c2)cc1 [Compound 143]	0.5443	–
0.00643	0.03	0.00574	CNCCN(C)Cc1c[nH]nc1-c1ccc(OCCOc2ccc(C(C)C)cc2)cc1 [Compound 144]	0.6546	–
0.00732	0.0375	0.00624	CNCCN(C)Cc1c[nH]nc1-c1ccc(OC(COc2ccccc2)COc2ccccc2)cc1 [Compound 146]	1.403	–
0.111	0.162	0.0164	CNCCN(C)Cc1c[nH]nc1-c1ccc(OC2CC(OCCN3CCOCC3)C2)cc1 (stereo not drawn) [Compound 147]	4.237	–
0.00822	0.0398	0.00632	CNCCN(C)Cc1c[nH]nc1-c1ccc(OCCOc2cccc(C(O)CO)c2)cc1 (stereo not drawn) [Compound 148]	8.688	–
0.172	0.342	0.0286	CNCCN(C)Cc1c[nH]nc1-c1ccc(OC2CC(OCCC(O)CO)C2)cc1 (stereo not drawn) [Compound 149]	>20	–
0.0654	0.459	0.00828	CN(CCN)Cc1c[nH]nc1-c1ccc2c(c1)OCC(=O)N2 [Compound 152]	>20	–
0.0043	0.0133	0.00315	CNCCN(C)Cc1c[nH]nc1-c1ccc(OCCOc2cccc(C)c2)cc1 [Compound 153]	0.1776	–
2.03	8.45	> 10	CNCCN(C)Cc1ccnn1-c1cc(OCCOC)cc(C(F)(F)F)c1 [Compound 154]	>20	–

Structure (SMILES)	IC50 (human PRMT1) [µM]	IC50 (human PRMT8) [µM]	IC50 (human PRMT6; [2]) [µM]	ICW EC30 [1] [µM]	IC50 (human PRMT6; PRMT6 IC50 (uM)) [µM]
CNCCN(C)Cc1c[nH]nc1-c1ccc(OCCOC)nc1 [Compound 121]	0.0423	0.163	–	1.472	0.0886
